Common to all, as to format: in vivo
Assay [1] has as its system spring wheat (Scotia variety). The assay is described as follows: Spring wheat (Scotia variety) field trial, Arnprior, Ontario: spray at late booting stage, yield. Conditions: EBR 0.05 ppm applied with Ethephon 0.18%. How it is done:
A spring wheat (Scotia variety) trial is carried out in Arnprior, Ontario, Canada. Typically, Ethephon alone has been used to reduce lodging in wheat. However, it can lead to the loss of yield, especially when it is sprayed at late booting stage.

Another assay has as its system Cherry (Bing variety). As to the kind of experiment: Cherry (Bing variety) field trials, Lodi, Calif.: growth regulation effects, spray at straw color. Conditions: sprayed at straw color, GA3 4.0 ppm (EBR 0.1 ppm in the combination). How it is done:
Two Cherry (Bing variety) trials are conducted in Lodi, Calif. to compare growth regulation effects of Gibberellic acid (GA3) and Composition of GA3 and 24-epibrassinolide (EBR). Typically, GA3 alone is commonly used on cherry at straw color for the elongation of storage life, but the application of GA3 often causes uneven ripening. [table]

Assay [2] has as its system table grape (Flame variety). The assay is described as follows: Table grape (Flame variety) field trial, Coachella, Calif.: spray at fruit size 12 mm. Conditions: sprayed at fruit size 12 mm, GA3 2.00 ppm (EBR 0.05 ppm in the combination), 100 gal water per acre. The source says: A table grape (Flame variety) trial was set up in Coachella, Calif. Typically, GA3 alone has been used as a growth stimulator on table grape at sizing (berry size 10-14 mm), but it can cause uneven ripening and size of berry. [table]

The subject of assay [3] is table grape (Thomson green seedless variety). The assay is described as follows: Table grape (Thomson green seedless variety) field trial, Mecca, Calif.: spray at fruit size 12 mm. Conditions: sprayed at fruit size 12 mm, GA3 4.0 ppm (EBR 0.1 ppm in the combination). Here is the method:
A table grape (Thomson green seedless variety) trial is carried out in Mecca, Calif. Typically, GA3 alone has been used as growth stimulator on table grape at sizing (berry size 10-14 mm), but it can cause uneven ripening and size of berry. [table]

Each structure is given as a SMILES string.

For the compound `CC(C)[C@@H](C)[C@@H](O)[C@H](O)[C@@H](C)[C@H]1CC[C@H]2[C@@H]3COC(=O)[C@H]4C[C@H](O)[C@H](O)C[C@]4(C)[C@H]3CC[C@]12C` [EBR, 24-epibrassinolide], the “Effect of EBR on loss of yield caused by Ethephon” value in assay [1] is given as “save/reverse the loss of yield”.
Take `C=C1C[C@]23C[C@@]1(O)CC[C@H]2[C@@]12C=C[C@H](O)[C@@](C)(C(=O)O1)[C@H]2[C@@H]3C(=O)O` [GA3, Gibberellic acid]: the “Ripening / uniformity of color and size” value (in the assay with Cherry (Bing variety); in assay [3]) was “the uneven ripening” each time. Moreover, the Fruits picked entry in the assay on Cherry (Bing variety) (100 gal water per acre) was “Picked 85% of fruits”; in assay [2], “Picked 90% of fruits”; in assay [3] (100 gal water per acre), “Picked 85% of fruits”. Further, the “Number of picks needed” value (in the assay on Cherry (Bing variety) (100 gal water per acre); in assay [2]) was “four” throughout.

Values taken from patent publication US20210251229A1, “PLANT REGULATOR COMPOSITIONS” (Suntton Company Limited, priority 2020, published 2021).
